Reference: PubChem BioAssay (NCI)
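Method: 48-hour compound exposure of cells in 96-well plates, five concentrations, linear interpolation of endpoints. GI50 marks 50% less growth. TGI is the concentration that stops growth completely.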

Experiments:
Assay in all cases: growth of human tumour cells (NCI), 48 h
A549 NSCLC = system: A549 NSCLC
EKVX NSCLC = system: EKVX NSCLC
HL-60(TB) leukemia = system: HL-60(TB) leukemia
HOP-92 NSCLC = system: HOP-92 NSCLC
HS 578T breast = system: HS 578T breast
MOLT-4 leukemia = system: MOLT-4 leukemia
SF-295 CNS = system: SF-295 CNS
SK-OV-3 ovarian = system: SK-OV-3 ovarian
SW-620 colon = system: SW-620 colon
UO-31 renal = system: UO-31 renal

SMILES	GI50 (A549 NSCLC) [µM]	TGI (A549 NSCLC) [µM]	GI50 (EKVX NSCLC) [µM]	TGI (EKVX NSCLC) [µM]	GI50 (HL-60(TB) leukemia) [µM]	TGI (HL-60(TB) leukemia) [µM]	GI50 (HOP-92 NSCLC) [µM]	TGI (HOP-92 NSCLC) [µM]	GI50 (HS 578T breast) [µM]	TGI (HS 578T breast) [µM]	GI50 (MOLT-4 leukemia) [µM]	TGI (MOLT-4 leukemia) [µM]	GI50 (SF-295 CNS) [µM]	TGI (SF-295 CNS) [µM]	GI50 (SK-OV-3 ovarian) [µM]	TGI (SK-OV-3 ovarian) [µM]	GI50 (SW-620 colon) [µM]	TGI (SW-620 colon) [µM]	GI50 (UO-31 renal) [µM]	TGI (UO-31 renal) [µM]
Cc1ccc(SC2c3ccc(C)cc3Oc3nc(N)c(C#N)c(N)c32)cc1 (stereo not drawn)	4.9	17.3	1.59	3.09	2.09	5.49	1.45	3.23	2.4	7.64	2.27	6.09	6.77	19.5	10.1	21.7	1.84	3.84	1.18	2.49
CC1(C)CC(=O)C(C=NC(=S)c2ccccc2)=C(O)C1		> 100		> 100		> 100		> 100		> 100		> 100		> 100		> 100		> 100		> 100
COc1cc(OCc2cccc(-c3ccc(C(O)c4nccs4)cc3)c2C)cc(OC)c1C=O (stereo not drawn)	2.32	11.6	2.02	6.63	1.87	4.85	2.19	8.52	3.08	20.5	1.9	5.88	2.12	6.58	6.07	20.9	3.2	12.7	1.49	4.68
Cc1ccc(S(=O)(=O)Nc2ccccc2C=O)cc1		> 100		61.1		27.6		13.1		59.6		34.5		85.6		94.8		47.5		26.8
S=C(Nc1ccc(Cl)cc1)Nc1ccc(-c2nc3ccccc3s2)cc1	14.9	32.2	15.1	42.9	8.22	> 100	17.2	45.5	16.4	39.2		> 100	16.1	40.6	24.9	63.1	17.9	35.4	11.8	25.2
CCOC(=O)c1ccc(NC(=O)Oc2ccc3c(C)cc(=O)oc3c2)cc1		> 100		> 100		62.2		54.1		84.1		58		> 100		94.4		> 100		> 100
COc1cccc(CC(C)=C(c2ccc(OCCN(C)C)cc2)c2ccc(OCCN(C)C)cc2)c1	3.59	8.25	4.09	8.52	0.667	1.34	0.865	4.48	3.58	8.9	0.834	2.39	4.07	8.62	5.66	10.4	0.735	1.82	3.55	7.57
COc1cc(C(=O)N2CCN(C=O)C2=S)cc(OC)c1OC	33.2	88.8	31.8	97.6	23.4	44.3	9.26	26.2	27.6	> 100	29.4	73.8	29.3	> 100	21.9	72.8	26.8	70		3.36
c1ccc(-c2nnc(-c3ccccn3)s2)nc1	> 100	> 100	> 100	> 100	> 100	> 100	7.46	> 100	> 100	> 100	> 100	> 100	> 100	> 100	> 100	> 100	> 100	> 100	22.3	> 100
O=C(O)COc1ccc2c(=O)c3sc4c(=O)c5ccccc5c(=O)c4c3c(=O)c2c1	11.2	26.5	16.8	78.8	24.1	61.3	18.9	43.2	3.4	19.2	21.5	52.6	6.72	20.6	16.6	43.9	11.4	28.6	11.8	30.1
COc1ccc(OC)c2c1[nH]c(=O)c1c3ccccc3cn21	1.02	2.37	1.34	3.76	1.7	4.24	1.5	3.31	2.18	5.06	0.581	2.3	1.25	2.7	1.47	2.97	0.59	2.11	1.11	2.38
O=C(Nc1ccc(Nc2ccncc2)cc1)c1ccc([N+](=O)[O-])cc1	10	33.1	11.2	> 61.2	4.43	> 24.6	4.96	21.7	5.8	25.9	3.3	> 33.3	3.79	10.3	5.85	19.8	2.22	5.08	3.46	10.4
COc1ccccc1/C=N\N/C(N)=N\N=C\c1ccccc1OC	1.55	> 100	0.574	14.3	0.215	0.558	0.578	31.6	0.447	38.7	0.355	3.9	< 0.0478	0.163	0.484	7.62	0.376	18.9	2.31	> 23.1
